Structures are written as SMILES.

Chain of PIK3CG (P48736 whole entry, looked up): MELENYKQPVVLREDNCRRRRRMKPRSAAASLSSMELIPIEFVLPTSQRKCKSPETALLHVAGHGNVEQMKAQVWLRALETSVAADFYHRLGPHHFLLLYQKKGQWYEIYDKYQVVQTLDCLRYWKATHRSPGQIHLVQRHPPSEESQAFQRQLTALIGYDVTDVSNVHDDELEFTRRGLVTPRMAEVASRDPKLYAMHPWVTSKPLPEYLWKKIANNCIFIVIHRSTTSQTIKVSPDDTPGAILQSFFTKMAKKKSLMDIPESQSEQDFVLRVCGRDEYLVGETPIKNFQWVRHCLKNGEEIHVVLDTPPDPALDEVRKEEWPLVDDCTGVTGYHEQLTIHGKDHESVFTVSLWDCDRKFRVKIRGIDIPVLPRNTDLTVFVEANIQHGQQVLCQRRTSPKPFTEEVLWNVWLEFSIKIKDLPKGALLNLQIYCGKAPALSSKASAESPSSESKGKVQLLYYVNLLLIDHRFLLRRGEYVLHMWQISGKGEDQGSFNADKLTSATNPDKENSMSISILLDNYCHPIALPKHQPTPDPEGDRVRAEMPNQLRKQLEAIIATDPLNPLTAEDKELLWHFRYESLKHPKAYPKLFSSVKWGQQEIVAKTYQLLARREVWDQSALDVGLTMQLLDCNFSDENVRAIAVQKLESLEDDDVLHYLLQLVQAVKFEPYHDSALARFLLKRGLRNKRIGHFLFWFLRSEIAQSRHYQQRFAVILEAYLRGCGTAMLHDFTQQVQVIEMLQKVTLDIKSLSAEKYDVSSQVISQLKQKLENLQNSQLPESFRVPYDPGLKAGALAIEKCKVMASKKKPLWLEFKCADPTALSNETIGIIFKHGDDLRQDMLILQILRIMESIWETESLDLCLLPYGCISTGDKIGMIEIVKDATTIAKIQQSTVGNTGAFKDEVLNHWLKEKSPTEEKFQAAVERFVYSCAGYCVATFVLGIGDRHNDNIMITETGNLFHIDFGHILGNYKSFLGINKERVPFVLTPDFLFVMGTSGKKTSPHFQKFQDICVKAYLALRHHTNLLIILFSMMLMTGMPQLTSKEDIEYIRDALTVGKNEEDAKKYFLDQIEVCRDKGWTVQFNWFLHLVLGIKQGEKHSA

The assay has as its target PIK3CG (UniProt P48736). Nature of the assay: Inhibition of PIK3CG Kinase Activity.
Usually IC50 stands for the concentration that gives 50% inhibition. The low end stands for greater potency in that assay, the high end for weaker potency in that assay. `CC(C)(C)c1cc(C(C)(C)C)nc(CN2C(=O)COc3c(F)cc(C=C4SC(=S)NC4=O)cc32)n1` registered an IC50 of 1240 nM.

In turn, `CCN1C(=O)COc2ccc(C=C3SC(=S)NC3=O)cc21` came in with an IC50 of 42 nM.

`CC(C)(C)OC(=O)N1CCC(C(=O)CN2C(=O)COc3ccc(C=C4SC(=S)NC4=O)cc32)CC1` displayed an IC50 of 3180 nM.

Regarding `CC1CC(C)CN(CCCN2C(=O)COc3c(F)cc(C=C4SC(=S)NC4=O)cc32)C1` (stereo not given), the IC50 is 18.5 nM.

Molecule `O=C1NC(=S)SC1=Cc1cc(F)c2c(c1)N(CCCN1CCOCC1)C(=O)CO2` registered an IC50 of 55 nM.

The molecule `CN1C(=O)COC2C=CC(C=C3OC(=S)NC3=O)=CC21` (stereo not given) registered an IC50 of 16 nM.

The molecule `CC(C)(C)c1cc(C(C)(C)C)nc(CN2C(=O)COc3ccc(C=C4SC(=S)NC4=O)cc32)n1` displayed an IC50 of 2070 nM.

`O=C1NC(=S)SC1=Cc1ccc2c(c1)N(CCc1ccc(C(F)(F)F)cc1C(F)(F)F)C(=O)CO2`: the IC50 was determined as 14 nM.

As for `CC(C)(C)c1cc(O)cc(CN2C(=O)COc3ccc(C=C4SC(=S)NC4=O)cc32)c1`, the IC50 stood at 22 nM.

With `O=C1NC(=S)SC1=Cc1cc(F)c2c(c1)N(Cc1ccc(F)c(Cl)c1)C(=O)CO2`, the IC50 came to 2 nM.

In the case of `CCOC(=O)N1CCC(Cc2ccc(CN3C(=O)COc4ccc(C=C5SC(=S)NC5=O)cc43)cc2)CC1`, the IC50 amounted to 52 nM. Against the preceding molecule, the IC50 is about 26-fold higher.

Consider `CC(C)(C)c1cc(CN2C(=O)COc3c(F)cc(C=C4SC(=S)NC4=O)cc32)cc(C(C)(C)O)c1`, for which the IC50 was 5 nM.

As for `CCOC(=O)N1CCC(Cc2ccc(CN3C(=O)COc4ccc(C=C5SC(=O)NC5=O)cc43)cc2)CC1`, the IC50 came out at 32 nM.

`COc1ccc(CCCN2C(=O)COc3ccc(C=C4SC(=O)NC4=O)cc32)cc1` showed an IC50 of 18 nM.

`O=C1NC(=S)SC1=Cc1ccc2c(c1)N(CC1CCCCC1)C(=O)CO2` came in with an IC50 of 2 nM.

Source of the values: the Kinase Knowledgebase extract (Sharma et al. 2016).
